Assay results as given in patent US8980911B2, “Heterocyclic compounds as protein kinase inhibitors” (Daiichi Sankyo Company, Limited, priority 2011, dated 2015).

How the values were obtained:
Format in all cases: biochemical
[1] = target: T1, JAK1 (Homo sapiens, UniProt P23458); assay: In vitro enzyme assay (cell-free HTRF kinase assay), JAK1; settings: catalytic domain aa 850-1154, GST-tag; ATP 60 μM, SRCtide 400 nM, reaction 120 min
T1 construct: JAK1 (aa 850-1154) and TYK2 (aa 871-1187) are expressed with an N-terminally fused GST-tag; GST (N); purchased Carna Bioscience, Inc; host or cells: baculovirus expression system
Experimental: (§1) Kinase buffer [50 mM HEPES (pH 7.5), 1 mM EGTA, 10 mM MgCl2, 2 mM DTT and 0.01% Tween-20) was prepared and dilutions of a compound of formula (I) and other reagents were subsequently made in it. Two times concentrated compound of formula (I) solution: A compound of formula (I) was diluted to 100-fold final concentration in DMSO, followed by 50-fold dilution with Kinase buffer (1% DMSO final concentration). Four times concentrated Substrate/ATP mix solution: Biotin-SRCtide and ATP were diluted to 4-fold final concentration in Kinase buffer. Biotin-SRCtide solution (purchased from Anaspec) was mixed with ATP solution (1:1). Four times concentrated Enzyme solution: JAK1 or JAK2 or JAK3 or TYK2 enzyme [Human baculo virus expressed JAK1, JAK2, JAK3 and TYK2 were purchased from Carna Bioscience, Inc. All enzymes only contain the catalytic domain. JAK1 (aa 850-1154) and TYK2 (aa 871-1187) are expressed with an N-terminally fused GST-tag, and JAK2 and JAK3 with an N-terminally fused His-tag] was diluted to 4-fold final concentration in Kinase buffer and always kept on ice. Detection buffer: LANCE detection buffer (10 times concentrated) was diluted 10-fold in H2O. Four times concentrated stop solution: EDTA was diluted to a concentration of 40 mM in detection buffer. Four times concentrated ULight/Eu-antibody (from Perkin Elmer) mix solution: ULight-Streptavidin was diluted to a concentration of 100 nM (25 ng/mL final concentrations) and Eu-anti-phospho-Tyrosine (PT66) (from Perkin Elmer) was diluted to a concentration of 8 nM (2 ng/mL final concentration) in detection buffer.
(§2) Cell-free in vitro kinase assay was performed in 384 well plates. Two times concentrated compound solution (5 μL) was pipetted into a HTS 384SV Small Volume Plate. Four times concentrated Substrate/ATP mix (2.5 μL) solution was added along with 4 times concentrated Enzyme solution (2.5 μL). Plate was covered with TopSeal-A and incubated at room temperature for indicated time (Table 3). Four times concentrated Stop solution (5 μL, 10 mM final concentration) was added and incubated for 5 minutes at room temperature. Four times concentrated ULight/Eu-antibody mix solution (5 μL) was added and again plate was covered with TopSeal and incubated overnight at 4° C. TopSeal was removed and HTRF signal was measured at 615 nm and […] (excitation at 320 or 340 nm) on Tecan M1000 Multi mode plate reader. Ratio (665 nm/615 nm)×10^4 was calculated and IC50 values were deduced from Graph-pad prism 4.2.

[2] = target: T2, JAK2 (Homo sapiens, UniProt O60674); assay: In vitro enzyme assay (cell-free HTRF kinase assay), JAK2; settings: catalytic domain, His-tag; ATP 10 μM, SRCtide 25 nM, reaction 30 min
T2 construct: All enzymes only contain the catalytic domain; His (N); purchased Carna Bioscience, Inc; host or cells: baculovirus expression system
Experimental: as §1, §2

[3] = target: T3, JAK3 (Homo sapiens, UniProt P52333); assay: In vitro enzyme assay (cell-free HTRF kinase assay), JAK3; settings: catalytic domain, His-tag; ATP 3 μM, SRCtide 100 nM, reaction 30 min
T3 construct: All enzymes only contain the catalytic domain; His (N); purchased Carna Bioscience, Inc; host or cells: baculovirus expression system
Experimental: as §1, §2

T3 sequence (P52333 822-1111 limits assumed): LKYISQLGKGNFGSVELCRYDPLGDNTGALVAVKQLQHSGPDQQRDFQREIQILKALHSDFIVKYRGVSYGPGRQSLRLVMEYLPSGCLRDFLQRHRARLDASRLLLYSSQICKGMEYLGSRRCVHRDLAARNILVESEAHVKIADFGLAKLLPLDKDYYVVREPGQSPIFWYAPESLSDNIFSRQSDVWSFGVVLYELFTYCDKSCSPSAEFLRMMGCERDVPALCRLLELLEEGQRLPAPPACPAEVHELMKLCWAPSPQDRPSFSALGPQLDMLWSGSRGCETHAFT
T2 sequence (O60674 849-1124 limits assumed): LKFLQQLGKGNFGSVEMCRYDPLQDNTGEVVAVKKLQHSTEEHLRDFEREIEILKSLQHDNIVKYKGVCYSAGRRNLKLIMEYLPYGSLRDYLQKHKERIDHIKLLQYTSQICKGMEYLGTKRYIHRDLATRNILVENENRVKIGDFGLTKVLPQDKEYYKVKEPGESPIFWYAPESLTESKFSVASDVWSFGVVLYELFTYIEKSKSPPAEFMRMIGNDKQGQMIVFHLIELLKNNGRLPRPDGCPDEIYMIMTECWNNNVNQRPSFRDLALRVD
T1 sequence (P23458 850-1154): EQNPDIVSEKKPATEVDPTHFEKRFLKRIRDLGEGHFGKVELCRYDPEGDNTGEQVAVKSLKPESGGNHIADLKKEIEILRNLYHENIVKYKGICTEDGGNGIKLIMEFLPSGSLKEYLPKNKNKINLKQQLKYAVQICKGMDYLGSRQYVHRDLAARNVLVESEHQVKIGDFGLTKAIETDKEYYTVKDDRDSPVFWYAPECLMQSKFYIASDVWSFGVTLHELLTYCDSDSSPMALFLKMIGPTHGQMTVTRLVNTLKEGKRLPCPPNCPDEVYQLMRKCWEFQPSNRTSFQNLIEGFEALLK

IC50 [1] | IC50 [2] | IC50 [3] | Compound
< 1000 nM | < 500 nM | < 500 nM | O=C(Nc1nccc2c1ccn2C(=O)c1c(Cl)cc(CO)cc1Cl)C1CC1 [Compound No. 96, N-{1-[2,6-Dichloro-4-(hydroxymethyl)benzoyl]-1H-pyrrolo[3,2-c]pyridin-4-yl}cyclopropanecarboxamide]
< 1000 nM | < 500 nM | < 500 nM | CCNC(=O)Nc1cc(Cl)c(C(=O)n2ccc3c(NC(=O)C4CC4)nccc32)c(Cl)c1 [Compound No. 103, N-(1-{2,6-Dichloro-4-[(ethylcarbamoyl)amino]benzoyl}-1H-pyrrolo[3,2-c]pyridin-4-yl)cyclopropanecarboxamide]
< 500 nM | < 500 nM | < 500 nM | CC(C)NC(=O)c1cc(Cl)c(C(=O)n2ccc3c(NC(=O)C4CC4)nccc32)c(Cl)c1 [Compound No. 107, 3,5-Dichloro-4-({4-[(cyclopropylcarbonyl)amino]-1H-pyrrolo[3,2-c]pyridin-1-yl}carbonyl)-N-(propan-2-yl)benzamide]
< 1000 nM | < 500 nM | < 500 nM | COCCNC(=O)Nc1cc(Cl)c(C(=O)n2ccc3c(NC(=O)C4CC4)nccc32)c(Cl)c1 [Compound No. 111, N-[1-(2,6-Dichloro-4-{[(2-methoxyethyl)carbamoyl]amino}benzoyl)-1H-pyrrolo[3,2-c]pyridin-4-yl]cyclopropanecarboxamide]
< 1000 nM | < 500 nM | < 500 nM | CN(CCO)C(=O)Nc1cc(Cl)c(C(=O)n2ccc3c(NC(=O)C4CC4)nccc32)c(Cl)c1 [Compound No. 112, N-[1-(2,6-Dichloro-4-{[(2-hydroxyethyl)(methyl)carbamoyl]amino}benzoyl)-1H-pyrrolo[3,2-c]pyridin-4-yl]cyclopropanecarboxamide]
< 1000 nM | < 500 nM | < 500 nM | O=C(Nc1cc(Cl)c(C(=O)n2ccc3c(NC(=O)C4CC4)nccc32)c(Cl)c1)NC1CC1 [Compound No. 113, N-(1-{2,6-Dichloro-4-[(cyclopropylcarbamoyl)amino]benzoyl}-1H-pyrrolo[3,2-c]pyridin-4-yl)cyclopropanecarboxamide]
< 1000 nM | < 500 nM | < 500 nM | O=C(NCCO)Nc1cc(Cl)c(C(=O)n2ccc3c(NC(=O)C4CC4)nccc32)c(Cl)c1 [Compound No. 115, N-[1-(2,6-Dichloro-4-{[(2-hydroxyethyl)carbamoyl]amino}benzoyl)-1H-pyrrolo[3,2-c]pyridin-4-yl]cyclopropanecarboxamide]
< 100 nM | < 50 nM | < 50 nM | O=C(Nc1cc2c(ccn2C(=O)c2c(Cl)cccc2Cl)cn1)C1CC1 [Compound No. 120, N-[1-(2,6-Dichlorobenzoyl)-1H-pyrrolo[3,2-c]pyridin-6-yl]cyclopropanecarboxamide]
< 1000 nM | < 500 nM | < 100 nM | CN(C)CCNC(=O)c1cc(Cl)c(C(=O)n2ccc3c(NC(=O)C4CC4)nccc32)c(Cl)c1 [Compound No. 122, 3,5-Dichloro-4-({4-[(cyclopropylcarbonyl)amino]-1H-pyrrolo[3,2-c]pyridin-1-yl}carbonyl)-N-[2-(dimethylamino)ethyl]benzamide]
< 500 nM | < 100 nM | < 50 nM | NCCNC(=O)c1cc(Cl)c(C(=O)n2ccc3c(NC(=O)C4CC4)nccc32)c(Cl)c1 [Compound No. 127, N-(2-Aminoethyl)-3,5-dichloro-4-({4-[(cyclopropylcarbonyl)amino]-1H-pyrrolo[3,2-c]pyridin-1-yl}carbonyl)benzamide]
< 500 nM | < 50 nM | < 100 nM | CCNC(=O)c1cc(Cl)c(C(=O)n2ccc3cnc(NC(=O)C4CC4)cc32)c(Cl)c1 [Compound No. 130, 3,5-dichloro-4-({6-[(cyclopropylcarbonyl)amino]-1H-pyrrolo[3,2-c]pyridin-1-yl}carbonyl)-N-ethylbenzamide]
< 500 nM | < 50 nM | < 500 nM | N#Cc1cc(Cl)c(C(=O)n2ccc3cnc(NC(=O)C4CC4)cc32)c(Cl)c1 [Compound No. 137, N-[1-(2,6-dichloro-4-cyanobenzoyl)-1H-pyrrolo[3,2-c]pyridin-6-yl]cyclopropanecarboxamide]
< 1000 nM | < 1000 nM | < 1000 nM | CCOC(=O)[C@H](C)NC(=O)c1cc(Cl)c(C(=O)n2ccc3c(NC(=O)C4CC4)nccc32)c(Cl)c1 [Compound No. 141, Ethyl N-[3,5-dichloro-4-({4-[(cyclopropylcarbonyl)amino]-1H-pyrrolo[3,2-c]pyridin-1-yl}carbonyl)benzoyl]alaninate]
< 1000 nM | < 500 nM | < 50 nM | O=C(NCC(O)CO)c1cc(Cl)c(C(=O)n2ccc3c(NC(=O)C4CC4)nccc32)c(Cl)c1 (stereo not drawn) [Compound No. 143, 3,5-Dichloro-4-({4-[(cyclopropylcarbonyl)amino]-1H-pyrrolo[3,2-c]pyridin-1-yl}carbonyl)-N-(2,3-dihydroxypropyl)benzamide]
< 500 nM | < 500 nM | < 500 nM | O=C(NCc1ccccn1)c1cc(Cl)c(C(=O)n2ccc3c(NC(=O)C4CC4)nccc32)c(Cl)c1 [Compound No. 147, 3,5-Dichloro-4-({4-[(cyclopropylcarbonyl)amino]-1H-pyrrolo[3,2-c]pyridin-1-yl}carbonyl)-N-(pyridin-2-ylmethyl)benzamide]
< 500 nM | < 500 nM | < 100 nM | O=C(NCCN1CCCC1)c1cc(Cl)c(C(=O)n2ccc3c(NC(=O)C4CC4)nccc32)c(Cl)c1 [Compound No. 148, 3,5-Dichloro-4-({4-[(cyclopropylcarbonyl)amino]-1H-pyrrolo[3,2-c]pyridin-1-yl}carbonyl)-N-[2-(pyrrolidin-1-yl)ethyl]benzamide]
< 500 nM | < 1000 nM | < 500 nM | O=C(NCCCN1CCOCC1)c1cc(Cl)c(C(=O)n2ccc3c(NC(=O)C4CC4)nccc32)c(Cl)c1 [Compound No. 149, 3,5-Dichloro-4-({4-[(cyclopropylcarbonyl)amino]-1H-pyrrolo[3,2-c]pyridin-1-yl}carbonyl)-N-[3-(morpholin-4-yl)propyl]benzamide]
< 500 nM | < 500 nM | < 500 nM | O=C(NCCN1CCCCC1)c1cc(Cl)c(C(=O)n2ccc3c(NC(=O)C4CC4)nccc32)c(Cl)c1 [Compound No. 150, 3,5-Dichloro-4-({4-[(cyclopropylcarbonyl)amino]-1H-pyrrolo[3,2-c]pyridin-1-yl}carbonyl)-N[2-(piperidin-1-yl)ethyl]benzamide]
< 1000 nM | < 500 nM | < 500 nM | CC(CO)NC(=O)c1cc(Cl)c(C(=O)n2ccc3c(NC(=O)C4CC4)nccc32)c(Cl)c1 (stereo not drawn) [Compound No. 151, 3,5-Dichloro-4-({4-[(cyclopropylcarbonyl)amino]-1H-pyrrolo[3,2-c]pyridin-1-yl}carbonyl)-N-(1-hydroxypropan-2-yl)benzamide]
< 1000 nM | < 500 nM | < 500 nM | O=C(NCCF)c1cc(Cl)c(C(=O)n2ccc3c(NC(=O)C4CC4)nccc32)c(Cl)c1 [Compound No. 154, 3,5-Dichloro-4-({4-[(cyclopropylcarbonyl)amino]-1H-pyrrolo[3,2-c]pyridin-1-yl}carbonyl)-N-(2-fluoroethyl)benzamide]
< 500 nM | < 500 nM | < 100 nM | CNCc1cc(Cl)c(C(=O)n2ccc3c(NC(=O)C4CC4)nccc32)c(Cl)c1 [Compound No. 163, N-(1-{2,6-Dichloro-4-[(methylamino)methyl]benzoyl}-1H-pyrrolo[3,2-c]pyridin-4-yl)cyclopropanecarboxamide]
< 500 nM | < 500 nM | < 500 nM | CCNCc1cc(Cl)c(C(=O)n2ccc3c(NC(=O)C4CC4)nccc32)c(Cl)c1 [Compound No. 164, N-(1-{2,6-Dichloro-4-[(ethylamino)methyl]benzoyl}-1H-pyrrolo[3,2-c]pyridin-4-yl)cyclopropanecarboxamide]
